Earlier results, collected in publication PMC5571359, “Screening the Medicines for Malaria Venture Pathogen Box across Multiple Pathogens Reclassifies Starting Points for Open-Source Drug Discovery” (Antimicrobial Agents and Chemotherapy, 2017).
pEC50, pIC50: −log10 of the molar value. Like-named read-outs stand apart in the source and are kept apart here.

What was measured:
HepG2 = conditions: ref PBox supporting information, cited from earlier work
P. falciparum ABS = conditions: cited from earlier work; for pEC50: ChEMBL Data; for pIC50: read-out: Pf 3D7 Pbox IC50
[1] = read-out: HepG2 PBox CC50 µM, HepG2 cytotoxicity
[2] = NITD, read-out: NITD (ref 94) EC50
[3] = TCMDC, read-out: TCMDC (ref 93) EX50
[4] = Pf 3D7, ref Pathogen Box supporting information
[5] = P. falciparum 3D7, ref PBox supporting information
[6] = P. falciparum, read-out: NITD (ref 94) EC50

Row | SMILES | pEC50 (P. falciparum ABS; [2]) | pEC50 (P. falciparum ABS; [3]) | pIC50 (P. falciparum ABS; [4]) | other results
1 | CC(=O)NCC1CN(c2ccc(-c3ccc(CO)cc3)c(F)c2)C(=O)O1 (stereo not drawn) [MMV688508] |  |  |  | CC50 (HepG2; read-out: HepG2 PBox CC50, HepG2): > 100 µM
2 | CC(C)(C(=O)Nc1ccc(F)cc1)n1cc(-c2ccccc2F)cn1 [MMV687239] |  |  |  | CC50 (HepG2; [1]): > 100 µM
3 | CCc1nc2ccc(Cl)cn2c1C(=O)NCc1ccc(N2CCC(c3ccc(OC(F)(F)F)cc3)CC2)cc1 [MMV687696] |  |  |  | CC50 (HepG2; [1]): > 100 µM
4 | FC(F)(F)c1cnc(Sc2nnc(-c3ccncc3)o2)c(Cl)c1 [MMV011765] | 5.73 | 6.57 | 6.57 | 
5 | CNC(=O)c1cc(S(=O)(=O)N2CCN(c3ccccn3)CC2)cs1 [MMV020136] |  | 6.17 | 5.95 | 
6 | CN1CCN(S(=O)(=O)c2ccc(-c3ccc4c(Nc5ccc6nn[nH]c6c5)ccnc4c3)cc2)CC1 [MMV687246] |  |  |  | pIC50 (P. falciparum ABS; [5]): 6.38
7 | O=C(C(Cc1c[nH]c2ccccc12)NS(=O)(=O)c1ccc(Cl)cc1)N1CCCCC1 (stereo not drawn) [MMV085210] |  |  |  | pEC50 (P. falciparum ABS; [6]): 6.14; pIC50 (P. falciparum ABS; [5]): < 5.70
8 | Cc1nn(C)cc1C(C)Nc1nncc(-c2ccc(C(F)(F)F)cc2)n1 (stereo not drawn) [MMV019993] |  | 6.60 | 6.92 | 
9 | c1ccc2c(c1)CN(CC1CC1)CC1(CCN(Cc3c[nH]c4cnccc34)CC1)O2 [MMV023183] |  | 6.05 | 6.21 | 
10 | COc1cccc2c(C)nc(N=C(N)N)nc12 [MMV000907] | 6.54 |  | 5.97 | 
11 | COc1cc(OC)cc(C(=O)NCC2Cc3cc(Cl)cc(-c4ccncc4)c3O2)c1 (stereo not drawn) [MMV007471] | 6.43 |  | 6.24 | 
12 | CCCS(=O)(=O)N1CCC(CO)(Cc2ccccc2C(F)(F)F)CC1 [MMV001059] | 5.90 | 6.05 | 5.96 | pEC50 (P. falciparum ABS; St Jude, read-out: St JUDE (ref 95) EC50): 5.47
13 | O=S(=O)(c1ccc(Cl)cc1)N1CCN(C(=S)NCc2ccco2)CC1 [MMV000858] | 6.01 |  | 5.92 | 
14 | CCc1cc(=O)n(C)c(SC(C)C(=O)Nc2ccc(F)cc2)n1 (stereo not drawn) [MMV688980] |  |  |  | pEC50 (P. falciparum ABS; [6]): 6.12; pIC50 (P. falciparum ABS; [5]): 5.71
15 | Cc1ccc2cc(C3NC(=O)c4ccccc4N3)c(Cl)nc2c1 (stereo not drawn) [MMV019807] |  | 6.02 | 5.78 | 
16 | Cc1cc2ccccc2n1CC(=O)N1CC(C(=O)N2CCCCC2)Oc2ccccc21 (stereo not drawn) [MMV020520] |  | 6.05 | 5.97 | 
17 | Cc1cc(NCC(C)C)c2n[nH]c(-c3ccccc3)c2n1 [MMV021375] |  | 6.13 | 5.85 | 
18 | COc1ccc(Cl)cc1NC(=O)CN(C)C(=O)c1cnn(-c2ccccc2)n1 [MMV020710] |  | 6.64 | 6.62 | 
19 | CN1CCN(c2nccc3[nH]c(-c4cccc(F)c4)cc23)CC1 [MMV393144] |  |  |  | pIC50 (P. falciparum ABS; [5]): 5.84

Row | SMILES | pEC50 (P. falciparum ABS; [2]) | pEC50 (P. falciparum ABS; [3]) | pIC50 (P. falciparum ABS; [4]) | other results
20 | COc1ccc(-c2cncc3ccc(C(=O)NCCCn4ccnc4)nc23)cc1 [MMV020670] |  | 6.12 | 5.97 | 
21 | Cc1noc(C)c1C(=O)N1CCCC(c2[nH]c3c(C)cccc3c2-c2ccncc2)C1 (stereo not drawn) [MMV020623] |  | 6.08 | 6.03 | 
22 | CCOc1ccccc1C(=O)Nc1cccc(-c2nc3ncccn3c2C)c1 [MMV019790] |  | 6.07 | 5.90 | 
23 | CC(C)C(C(=O)Nc1ccc(S(=O)(=O)N(C)C)cc1)c1ccc(Cl)cc1 (stereo not drawn) [MMV020391] |  | 6.03 | 6.03 | 
24 | Cc1cc(Nc2ccncc2)n2nc(C)c(-c3ccccc3Cl)c2n1 [MMV016136] |  | 6.16 | 6.20 | 
25 | O=C(c1ccc(NCCO)cc1)C1C[C@H]1c1ccc(Cl)cc1 (stereo partly drawn) [MMV676877] |  |  |  | pIC50 (P. falciparum ABS; [5]): 6.18
26 | CC(C)NCC(=O)Nc1cccc(C(=O)Nc2cccc(C(F)(F)F)c2)c1 [MMV020165] |  | 6.57 | 6.46 | 
27 | COc1ccc(CCN2CCC(NCc3cccc(N(C)C)c3)CC2)cc1 [MMV011511] | 6.09 | 5.88 | 5.92 | 
28 | CCC(NC(=O)c1ccccc1NC(=O)c1ccc(C)cc1)C(=O)OC (stereo not drawn) [MMV019551] |  | 6.12 | 6.80 | 
29 | Cc1cc(Cl)c(S(=O)(=O)N2CCCC2)cc1OCC(=O)NC1CCCCC1 [MMV006833] | 7.00 |  | 6.52 | 
30 | CC(C)(C)c1cc(C(=O)N2CCN(c3nccnc3C#N)CC2)n(Cc2ccccc2)n1 [MMV023949] |  | 6.12 | 6.22 | 
31 | Cc1cc(C)n(-c2ccc(NC(=O)C3CCN(Cc4cnc(C)s4)CC3)cc2)n1 [MMV007625] | 6.09 |  | 6.11 | 
32 | COc1cc2ncnc(NC3CCN(Cc4ccccc4)CC3)c2cc1OC [MMV006741] | 6.40 |  | 6.21 | 
33 | O=C(Nc1ccnc(-c2cccnc2)n1)c1cc(C(F)(F)F)cc(C(F)(F)F)c1 [MMV019838] |  | 6.08 | 5.98 | 
34 | Cc1ccc2[nH]c3c(NCCN(C)C)ncnc3c2c1 [MMV006372] | 6.77 | 6.06 | 6.10 | 
35 | CCn1cnc2c(Nc3cc(F)cc(F)c3)nc(C#N)nc21 [MMV676881] |  |  |  | pIC50 (P. falciparum ABS; [5]): 6.05
36 | Cc1cc(NC(=O)c2ccc(S(=O)(=O)N(Cc3ccccc3)C(C)C)cc2)no1 [MMV007133] | 5.57 | 6.07 | 6.01 | 
37 | COc1ccc(C2CC(c3cccs3)=NN2C(=O)c2ccco2)cc1OC (stereo not drawn) [MMV019234] |  | 6.77 | 6.52 | 
38 | O=C(NC1CC1)c1ccc(CSCc2ccccc2Cl)o1 [MMV007803] | 6.30 |  | 5.85 | 
